The source of these data is PubChem BioAssay AID1996.

In brackets after ≈: the same amount, converted by molar mass.

The conditions of the data set: buffer; pH 7.4; 200.0 µM.
Take `C[C@H](NC(=O)Cc1cccc2ccccc12)C(=O)N1CCOCC1`: the kinetic solubility (in general, solubility judged after dilution from a stock solution rather than from solid) is above 49 µg/mL. Under `CS(=O)(=O)N1CCN(c2nc3ccc(Cl)cc3s2)CC1` stands below 0.2 µg/mL; under `COc1ccc(O)c(C(=O)c2cnc3c(c2)CN(C)C(=O)N3)c1`, 8 µg/mL (≈ 25.5 µM); under `COc1ccc(C(=O)CNc2ccc(C)cc2C)cc1`, 5.8 µg/mL (≈ 21.5 µM). Under `Cc1ccc(S(=O)(=O)N2CCN(C(C)C(=O)NCC(C)c3ccccc3)CC2)cc1` (stereo not drawn) stands 58.2 µg/mL (≈ 135 µM); under `Cc1ccc(O)c(NC(=O)c2cc(C)no2)c1`, above 34.8 µg/mL; under `COc1cc(CC(=O)N(CC(C)C)C2CCS(=O)(=O)C2)cc(OC)c1OC` (stereo not drawn), above 59.9 µg/mL. With `CN1CCOCCOc2ccccc2OCCOCC1` the figure was above 42.2 µg/mL; with `CN(C)S(=O)(=O)Nc1ccccc1F`, 30.2 µg/mL (≈ 138 µM). Molecule `COC(=O)CCCSc1nccn1-c1ccccc1` showed a kinetic solubility above 41.5 µg/mL.

`COc1ccc(Cl)cc1/C=C/c1ccc2cccc(O)c2n1` registered a solubility (kinetic) of 0.8 µg/mL (≈ 2.57 µM). With `CN(Cc1cc2ccccc2[nH]c1=O)C(=O)COc1ccccc1` the figure was 13.8 µg/mL (≈ 42.8 µM). The molecule `CN(CC(=O)Nc1ccc(F)cc1)C(=O)c1ccncc1` had a solubility (kinetic) above 43.1 µg/mL. Under `O=c1oc(-c2ccccc2Br)nc2ccccc12` stands 5.2 µg/mL (≈ 17.2 µM); under `O=C1Nc2cccnc2N(C(=O)CCl)c2ccccc21`, above 43.2 µg/mL; under `COCCSc1ccccc1C(=O)Nc1ccc(Cl)cc1`, 44.1 µg/mL (≈ 137 µM).

`COc1ccc(CN(C)C2CCN(C)CC2)cc1OC` had a solubility (kinetic) of 38.3 µg/mL (≈ 138 µM). Under `CCC(=O)Nc1ccc2c(c1)N(C(C)=O)c1ccccc1CC2` stands above 46.3 µg/mL; under `C=C(C)Cc1c(C)c(C#N)c2[nH]c3ccccc3n2c1=O`, 2.9 µg/mL (≈ 10.5 µM); under `CCc1nc(SCC(=O)Nc2ccc(N(C)C)cc2)n[nH]1`, above 45.8 µg/mL. Under `COc1nc(Nc2cccc(F)c2)nc(OC)n1` stands 12.8 µg/mL (≈ 51.2 µM); under `Cc1ccc2c(c1)sc1nc(=O)n(-c3ccccc3)c(=O)n12`, 2.3 µg/mL (≈ 7.43 µM); under `c1ccc(Nc2cccc3ccccc23)cc1`, 1.5 µg/mL (≈ 6.84 µM).

Turning to `CC(=O)N1CCN(C(=O)c2ccc(Cl)c(S(=O)(=O)N3CCCC3)c2)CC1`, the kinetic solubility was above 60 µg/mL.

Take `COc1ccc(C(=O)Nc2cc(C(=O)O)cc(C(=O)O)c2)cc1Cl`: the solubility (kinetic) was above 52.5 µg/mL. `N#Cc1ccccc1CCN1C(=O)c2ccccc2C1=O` had a kinetic solubility of 19.6 µg/mL (≈ 70.9 µM).

Consider `O=C(CN1C(=O)c2ccccc2C1=O)NC1CCCCCC1`, for which the kinetic solubility came out at 12.4 µg/mL (≈ 41.3 µM). With `COc1ccccc1Nc1ncccc1[N+](=O)[O-]` the figure was 1.2 µg/mL (≈ 4.89 µM). Under `Nc1ccc(-c2nc3ncccc3o2)c(O)c1` stands 3.1 µg/mL (≈ 13.6 µM); under `Cc1cc(C)c(NC(=O)CN(C)CC(=O)Nc2cccc(S(=O)(=O)N(C)c3ccccc3)c2)c(C)c1.O=C(O)C(=O)O`, 14.3 µg/mL; under `CCOc1ccccc1NC(=O)c1cccc(N2C(=O)CCC2=O)c1`, above 50.8 µg/mL.

In turn, `CC1CCCN(C(=O)/C(=C/c2ccco2)NC(=O)c2ccccc2)C1` (stereo not drawn) gave a solubility (kinetic) above 50.8 µg/mL. With `CCN(CC)C(=O)Oc1ccnc2cc(Cl)ccc12` the figure was above 41.8 µg/mL. Under `Cc1ccccc1OCCCC(=O)NC1CCCCC1` stands 3.7 µg/mL (≈ 13.4 µM). `COc1ccc(C(=O)NCCCNC(=O)c2cc3ccccc3[nH]2)cc1OC`: the solubility (kinetic) was above 57.2 µg/mL. Under `CC(C(=O)NCC1CCCCC1)N(C)Cc1cccc(Cl)c1` (stereo not drawn) stands 22.8 µg/mL (≈ 70.6 µM); under `COc1ccc(OC)c(-c2cc(-c3cccnc3)nc(N)c2C#N)c1`, 1.7 µg/mL (≈ 5.11 µM). Under `CC1CCN(c2nc3ccccn3c(=O)c2C=O)CC1` stands above 40.7 µg/mL; under `COC(=O)c1cc(C(=O)Cc2ccccc2)c[nH]1`, above 36.5 µg/mL. `Cc1onc(-c2ccccc2)c1C(=O)NC(C)CCc1ccccc1` (stereo not drawn) yielded a solubility (kinetic) of 1.1 µg/mL (≈ 3.29 µM). Molecule `Br.Cc1ccc(C2=CSC3=NCCN23)cc1` registered a kinetic solubility of 43.2 µg/mL. Under `Cc1nnc(SCC(=O)Nc2sccc2C#N)s1` stands above 44.5 µg/mL; under `COc1cccc(/C=c2\s/c(=C\C(=O)C(C)(C)C)[nH]c2=O)c1`, 2.1 µg/mL (≈ 6.62 µM).

In turn, `CC(=O)Nc1ccc2c(c1)CCc1ccccc1-2` gave a solubility (kinetic) of 3.9 µg/mL (≈ 16.4 µM). Under `Clc1ncc(CSc2ccccc2)s1` stands 2.3 µg/mL (≈ 9.51 µM).

Molecule `O=C(c1ccc(Br)cc1)C12CN3CN(CN(C3)C1)C2` showed a kinetic solubility above 48.3 µg/mL. `CCCc1c(C)[nH]c2nc3ccccc3n2c1=O` yielded a kinetic solubility of 3.6 µg/mL (≈ 14.9 µM).

Turning to `Cc1noc(C(=O)NC2CCCCC2)c1Cl`, the kinetic solubility stood at 35.6 µg/mL (≈ 147 µM).

As for `O=C(/C=C/c1cccc(F)c1)N1CCN(c2ncccn2)CC1`, the solubility (kinetic) came to 12.4 µg/mL (≈ 39.7 µM). With `O=C(Nc1ccc(F)cc1)OC1CN2CCC1CC2` (stereo not drawn) the figure was above 39.6 µg/mL. Under `Cc1cc2ncc(S(=O)(=O)C(C)(C)C)c(N)n2n1` stands above 40.2 µg/mL; under `Cc1ccc(Nc2ncnc(-n3cccc3)n2)cc1Cl`, below 0.1 µg/mL.

With `Cn1c(SCc2ccccc2C#N)nnc1-c1ccncc1`, the kinetic solubility was above 46.1 µg/mL.
